Results reported in patent US20190071416A1, “COMPOUNDS FOR TREATMENT OF CANCER AND EPIGENETICS” (Agency For Science, Technology and Research, priority 2015, published 2019).

target: T1, SMYD3 (Homo sapiens, UniProt Q9H7B4); assay: SMYD3 biochemical assay (MTase-Glo, MAP3K2 peptide substrate); details: Table 3; MTase assay, MAP3K2 peptide substrate; read-out: IC50
T1 sequence (Q9H7B4 1-428): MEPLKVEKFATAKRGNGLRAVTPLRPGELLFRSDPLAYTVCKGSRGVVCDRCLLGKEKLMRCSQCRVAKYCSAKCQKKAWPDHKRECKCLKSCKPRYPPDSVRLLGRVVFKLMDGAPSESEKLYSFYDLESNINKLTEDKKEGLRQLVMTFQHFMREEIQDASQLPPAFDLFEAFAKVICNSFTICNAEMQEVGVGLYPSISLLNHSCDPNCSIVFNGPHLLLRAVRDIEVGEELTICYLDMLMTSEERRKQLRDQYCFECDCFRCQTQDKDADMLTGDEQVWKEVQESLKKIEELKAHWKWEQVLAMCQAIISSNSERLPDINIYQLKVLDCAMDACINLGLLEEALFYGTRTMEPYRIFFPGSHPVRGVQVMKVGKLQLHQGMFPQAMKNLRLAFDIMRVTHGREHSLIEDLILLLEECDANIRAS
How it was run: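 Methylation of MAP3K2 peptide (10 µM final) with SAM (1.0 µM final) by SMYD3, 30 min at room temperature. SAH formed was enzymatically converted to ATP and detected as luminescence with MTase-Glo reagents; IC50 by non-linear regression.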

| Structure (SMILES) | IC50 [µM] |
| --- | --- |
| CCCOC(=O)N1CCN(C(=O)c2ccc3c(Cl)cc(-c4ccc(F)cc4)nc3c2)CC1 [B065, Propyl 4-(4-chloro-2-(4-fluorophenyl)quinoline-7-carbonyl)piperazine-1-carboxylate] | 0.56 |
| CCCOC(=O)N1CCN(C(=O)c2ccc3c(Cl)cc(-c4ccc(C(F)(F)F)cc4)nc3c2)CC1 [B066, Propyl 4-(4-chloro-2-(4-(trifluoromethyl)phenyl)quinoline-7-carbonyl)piperazine-1-carboxylate] | 3.7 |
| CCCOC(=O)N1CCN(C(=O)c2ccc3c(Cl)cc(-c4cccc(CC)c4)nc3c2)CC1 [B067, Propyl 4-(4-chloro-2-(3-ethylphenyl)quinoline-7-carbonyl)piperazine-1-carboxylate] | 2.1 |
| CCCOC(=O)N1CCN(C(=O)c2ccc3c(Cl)cc(-c4ccc(F)c(C)c4)nc3c2)CC1 [B068, Propyl 4-(4-chloro-2-(4-fluoro-3-methylphenyl)quinoline-7-carbonyl)piperazine-1-carboxylate] | 1.3 |
| CCCOC(=O)N1CCN(C(=O)c2ccc3c(Cl)cc(-c4cccc(N5CCOCC5)c4)nc3c2)C[C@H]1C [B069, Propyl (R)-4-(4-chloro-2-(3-morphohnophenyl)quinoline-7-carbonyl)-2-methylpiperazine-1-carboxylate] | 0.24 |
| C#Cc1cccc(-c2cc(Cl)c3ccc(C(=O)N4CCN(C(=O)OCCC)CC4)cc3n2)c1 [B070, Propyl 4-(4-chloro-2-(3-ethynylphenyl)quinoline-7-carbonyl)piperazine-1-carboxylate] | 2.1 |
| C#Cc1cccc(-c2cc(Cl)c3ccc(C(=O)N4CCN(C(=O)OCCC)[C@H](C)C4)cc3n2)c1 [B071, Propyl (R)-4-(4-chloro-2-(3-ethynylphenyl)quinoline-7-carbonyl)-2-methylpiperazine-1-carboxylate] | 1.3 |
| CCCOC(=O)N1CCN(C(=O)c2ccc3c(Cl)cc(-c4ccc([N+](=O)[O-])cc4)nc3c2)CC1 [B072, Propyl 4-(4-chloro-2-(4-nitrophenyl)quinoline-7-carbonyl)piperazine-1-carboxylate] | 1.4 |
| CCCOC(=O)N1CCN(C(=O)c2ccc3c(Cl)cc(-c4ccc(N)cc4)nc3c2)CC1 [B073, Propyl 4-(2-(4-aminophenyl)-4-chloroquinoline-7-carbonyl)piperazine-1-carboxylate] | 0.09 |
| CCCOC(=O)N1CCN(C(=O)c2ccc3c(Cl)cc(-c4ccc(N)cc4)nc3c2)C[C@H]1C [B074, Propyl (R)-4-(2-(4-aminophenyl)-4-chloroquinoline-7-carbonyl)-2-methylpiperazine-1-carboxylate] | 0.13 |
| CCCOC(=O)N1CCN(C(=O)c2ccc3c(Cl)cc(-c4ccc(N5CCCC5)cc4)nc3c2)C[C@H]1C [B075, Propyl (R)-4-(4-chloro-2-(4-(pyrrolidin-1-yl)phenyl)quinoline-7-carbonyl)-2-methylpiperazine-1-carboxylate] | 0.44 |
| CCCOC(=O)N1CCN(C(=O)c2ccc3c(Cl)cc(-c4ccc(N(C)C)cc4)nc3c2)[C@@H](C)C1 [B076, Propyl (S)-4-(4-chloro-2-(4-(dimethylamino)phenyl)quinoline-7-carbonyl)-3-methylpiperazine-1-carboxylate] | 0.19 |
| CCCOC(=O)N1CCN(C(=O)c2ccc3c(Cl)cc(-c4cccc(N)c4)nc3c2)CC1 [B077, Propyl 4-(2-(3-aminophenyl)-4-chloroquinoline-7-carbonyl)piperazine-1-carboxylate] | 0.12 |
| CCCOC(=O)N1CCN(C(=O)c2ccc3c(Cl)cc(-c4cccc(N)c4)nc3c2)C[C@H]1C [B078, Propyl (R)-4-(2-(3-aminophenyl)-4-chloroquinoline-7-carbonyl)-2-methylpiperazine-1-carboxylate] | 0.13 |
| CCCOC(=O)N1CCN(C(=O)c2ccc3c(Cl)cc(C4CC4)nc3c2)C[C@H]1C [B079, Propyl (R)-4-(4-chloro-2-cyclopropylquinoline-7-carbonyl)-2-methylpiperazine-1-carboxylate] | 0.06 |
| CCCOC(=O)N1CCN(C(=O)c2ccc3c(Cl)cc(-c4nccs4)nc3c2)C[C@H]1C [B080, Propyl (R)-4-(4-chloro-2-(thiazol-2-yl)quinoline-7-carbonyl)-2-methylpiperazine-1-carboxylate] | 10 |
| CCCOC(=O)N1C2CCCC1CN(C(=O)c1ccc3c(Cl)cc(-c4ccccc4)nc3c1)C2 [B081, Propyl 3-(4-chloro-2-phenylquinoline-7-carbonyl)-3,9-diazabicyclo[3.3.1]nonane-9-carboxylate] | 0.47 |

| Structure (SMILES) | IC50 [µM] |
| --- | --- |
| CCCOC(=O)N1CCN(C(=O)c2ccc3c(Cl)cc(-c4ccc(C(=O)N(C)C)cc4)nc3c2)C[C@H]1C [B082, Propyl (R)-4-(4-chloro-2-(4-(dimethylcarbamoyl)phenyl)quinoline-7-carbonyl)-2-methylpiperazine-1-carboxylate] | 0.69 |
| CCCOC(=O)N1CCN(C(=O)c2ccc3c(Cl)cc(-c4cccc(NC)c4)nc3c2)C[C@H]1C [B083, Propyl (R)-4-(4-chloro-2-(3-(methylamino)phenyl)quinoline-7-carbonyl)-2-methylpiperazine-1-carboxylate] | 0.058 |
| CCCOC(=O)N1CCN(C(=O)c2ccc3c(Cl)cc(-c4cccs4)nc3c2)CC1 [B084, Propyl 4-(4-chloro-2-(thiophen-2-yl)quinoline-7-carbonyl)piperazine-1-carboxylate] | 0.54 |
| CCCOC(=O)N1CCN(C(=O)c2ccc3c(Cl)cc(-c4cccs4)nc3c2)C[C@H]1C [B085, Propyl (R)-4-(4-chloro-2-(thiophen-2-yl)quinoline-7-carbonyl)-2-methylpiperazine-1-carboxylate] | 0.21 |
| CCCOC(=O)N1CCN(C(=O)c2ccc3c(Cl)cc(-c4ccc5c(cnn5C)c4)nc3c2)C[C@H]1C [B086, Propyl (R)-4-(4-chloro-2-(1-methyl-1H-indazol-5-yl)quinoline-7-carbonyl)-2-methylpiperazine-1-carboxylate] | 0.011 |
| CCCOC(=O)N1CCN(C(=O)c2ccc3c(Cl)cc(-c4ccc(F)c(OC)c4)nc3c2)CC1 [B087, Propyl 4-(4-chloro-2-(4-fluoro-3-methoxyphenyl)quinoline-7-carbonyl)piperazine-1-carboxylate] | 0.93 |
| CCCOC(=O)N1CCN(C(=O)c2ccc3c(Cl)cc(-c4ccc(F)c(OC)c4)nc3c2)C[C@H]1C [B088, Propyl (R)-4-(4-chloro-2-(4-fluoro-3-methoxyphenyl)quinoline-7-carbonyl)-2-methylpiperazine-1-carboxylate] | 0.014 |
| CCCOC(=O)N1CCN(C(=O)c2ccc3c(Cl)cc(-c4ccc(-n5ccnc5)cc4)nc3c2)C[C@H]1C [B089, Propyl (R)-4-(2-(4-(1H-imidazol-1-yl)phenyl)-4-chloroquinoline-7-carbonyl)-2-methylpiperazine-1-carboxylate] | 0.065 |
| CCCOC(=O)N1CCN(C(=O)c2ccc3c(Cl)cc(-c4ccc(N5CCOCC5)cc4)nc3c2)C[C@H]1C [B090, Propyl (R)-4-(4-chloro-2-(4-morpholinophenyl)quinoline-7-carbonyl)-2-methylpiperazine-1-carboxylate] | 0.077 |
| CCCOC(=O)N1CCN(C(=O)c2ccc3c(Cl)cc(-c4ccnn4C)nc3c2)[C@@H](C)C1 [B091, Propyl (S)-4-(4-chloro-2-(1-methyl-1H-pyrazol-5-yl)quinoline-7-carbonyl)-3-methylpiperazine-1-carboxylate] | 7.5 |
| CCCOC(=O)N1CCN(C(=O)c2ccc3c(Cl)c(C)c(-c4ccc(C(N)=O)cc4)nc3c2)CC1 [B092, Propyl 4-(2-(4-carbamoylphenyl)-4-chloro-3-methylquinoline-7-carbonyl)piperazine-1-carboxylate] | 0.25 |
| CCCOC(=O)N1CCN(C(=O)c2ccc3c(Cl)c(C)c(-c4ccc(CN)cc4)nc3c2)CC1 [B093, Propyl 4-(2-(4-(aminomethyl)phenyl)-4-chloro-3-methylquinoline-7-carbonyl)piperazine-1-carboxylate] | 0.042 |
| CCCOC(=O)N1CCN(C(=O)c2ccc3c(Cl)cc(-c4ccc(S(=O)(=O)N(C)C)cc4)nc3c2)C[C@H]1C [B094, Propyl (R)-4-(4-chloro-2-(4-(N,N-dimethylsulfamoyl)phenyl)quinoline-7-carbonyl)-2-methylpiperazine-1-carboxylate] | 0.61 |
| CCCOC(=O)N1CCN(C(=O)c2ccc3c(Cl)cc(-c4ccc(N5CCN(C)CC5)cc4)nc3c2)C[C@H]1C [B095, Propyl (R)-4-(4-chloro-2-(4-(4-methylpiperazin-1-yl)phenyl)quinoline-7-carbonyl)-2-methylpiperazine-1-carboxylate] | 0.056 |
| CCCOC(=O)N1CCN(C(=O)c2ccc3c(Cl)cc(-c4cccc(-n5cnnc5)c4)nc3c2)C[C@H]1C [B096, Propyl (R)-4-(2-(3-(4H-1,2,4-triazol-4-yl)phenyl)-4-chloroquinoline-7-carbonyl)-2-methylpiperazine-1-carboxylate] | 0.31 |
| CCCOC(=O)N1CCN(C(=O)c2ccc3c(Cl)cc(-c4ccc(OC)c(CN)c4)nc3c2)CC1 [B097, Propyl 4-(2-(3-(aminomethyl)-4-methoxyphenyl)-4-chloroquinoline-7-carbonyl)piperazine-1-carboxylate] | 0.11 |
| CCCOC(=O)N1CCN(C(=O)c2ccc3c(Cl)cc(-c4ccc(CN(C)C)cc4)nc3c2)C[C@H]1C [B098, Propyl (R)-4-(4-chloro-2-(4-((dimethylamino)methyl)phenyl)quinoline-7-carbonyl)-2-methylpiperazine-1-carboxylate] | 0.13 |
